Source: paper PMC12337082 (Journal of Biochemical and Molecular Toxicology, 2025)
Entries after “also recorded” stand apart in the source; their conditions may differ. Where two headings read alike, the source gives them in different places.

Key:
[1] = system: MCF‐7; conditions: cited from earlier work
[2] = system: MDA‐MB‐231; conditions: MDA‐MB‐231, 24 h, cited from earlier work
[3] = system: cancer cell proliferation; design: method as in PMID 27074576; conditions: read-out: Effective range of cytotoxicity IC50 values in inhibiting cancer cell proliferation; cited from earlier work
[4] = system: PGE2 release; assay: PGE2 ELISA, MCF‐7; type: cell-based, human; conditions: MCF‐7, 3 µM
Procedure: (§1) PGE2 ELISA kit (ENZO, ADI‐900‐001) was used to determine prostaglandin synthesis levels. MCF‐7 and MDA‐MB‐231 breast cancer cells were cultured at a density of 1 × 10^6 cells/well in a 6‐well culture dish. […] Following 24 h of incubation, the medium was replaced with a fresh one, 10 µM arachidonic acid was added, and it was further incubated for 1 h. The PGE2 levels were determined according to the kit protocol.

[5] = system: PGE2 release; assay: PGE2 ELISA, MDA‐MB‐231; type: cell-based, human; conditions: MDA‐MB‐231, 3 µM
Procedure: as §1

[6] = system: multiple myeloma cell lines; design: method as in Yasui et al. (2007) [63]; conditions: 48 h, ref Yasui et al. (2007) [63]; cited from earlier work
[7] = system: MCF‐7; assay: MTT cell viability assay, MCF‐7; type: cell-based, human; conditions: for IC50: Homo sapiens, MCF7, MTT
Source text: (§2) MCF‐7, MDA‐MB‐231, and L‐929 mouse fibroblast cell lines were obtained from the American Type Culture Collection (ATCC, Manassas, Virginia, USA). MCF‐7 is a hormone‐responsive, differentiated mammary epithelium cell line with an ER+, PR+, and HER2‐ pattern (ATCC, HTB‐22). MDA‐MB‐231 is a triple‐negative differentiated mammary epithelium cell line (ATCC, HTB‐26). The L‐929 mouse fibroblast cell line is derived from the normal subcutaneous connective tissue of a mouse and is commonly used in cytotoxicity assays (ATCC, CCL‐1). All cell lines were cultured in DMEM medium (Dulbecco's Modified Eagle Medium, Gibco), supplemented with 10% fetal bovine serum (Gibco), 1% glutamine, and penicillin/streptomycin (Gibco) in a humidified atmosphere containing 5% CO2 at 37°C. Cell viability was tested using Trypan blue staining.
(§3) The MTT [3‐(4,5‐dimethylthiazol‐2‐yl)−2,5‐diphenyltetrazolium bromide] assay is a colorimetric assay for determining cell metabolic activity. In the MTT assay, the yellow dye MTT that dissolves in water is changed by mitochondrial reductase into a purple formazan that is non‐soluble. The water‐insoluble formazan produced is solubilized in a solubilization buffer, and absorbances are detected.
(§4) In 96‐well plates, the cells were cultivated at a density of 5 × 10^3 cells/well using 100 µL medium. […] 10 μL of the MTT labeling reagent (final concentration 0.5 mg/mL) were added to each well at the end of the incubation periods, and the wells were incubated for an additional 4 h. Next, each well received 100 μL of solubilization buffer (10% SDS in 0.01 M HCl) and was overnight incubated, and the absorbance of formazan products was evaluated at 550 nm using a multi‐mode microplate reader (Synergy H1, Biotech Instruments Inc., Vermont, USA). The results were normalized relative to the absorbances of calculated percent concentrations of DMSO. All tests involved three replicates with three independent experiments.
(§5) All statistical evaluations, including t‐tests and IC50 values, were calculated using the GraphPad Prism software tool (v6.0, GraphPad Software Inc., San Diego, USA). Statistical significance was defined as p ˂ 0.05 (*p < 0.05, **p < 0.01, ***p < 0.001, ****p < 0.0001).

[8] = system: MDA‐MB‐231; assay: MTT cell viability assay, MDA‐MB‐231; type: cell-based, human; conditions: for IC50: Homo sapiens, MTT
Source text: as §2, §3, §4, §5

[9] = system: L‐929 mouse fibroblast cell line; assay: MTT cell viability assay, L‐929 control fibroblasts; type: cell-based; conditions: Mus musculus
Source text: as §2, §3, §4, §5

[10] = system: MCF‐7; assay: Annexin V/PI staining, Tali image‐based cytometry, MCF‐7; type: cell-based, human; conditions: MCF‐7, 24 h
Source text: (§6) To assess apoptosis and cell death, cells were stained with Annexin V‐PI dyes (Tali Apoptosis Kit‐Annexin V Alexa Fluor 488 and PI‐, Molecular Probes A10788, Invitrogen) and quantified using Tali Image‐Based Cytometer (Invitrogen) and fluorescence microscopy (Olympus CKX41 Inverted Phase Contrast Fluorescence Microscope furbished with reflected fluorescence illuminator CKX‐RFA).
(§7) To assess whether our compounds produce their cytotoxic effects through induction of apoptosis, apoptosis was investigated using Annexin V/PI labeling and MMP methods (Figures 4A−C). In addition, by utilizing TALI image‐based cytometry and fluorescent microscopy, the number of cells was analyzed for different concentrations of agents (Table 4).

[11] = system: MDA‐MB‐231; assay: Annexin V/PI staining, Tali image‐based cytometry, MDA‐MB‐231; type: cell-based, human; conditions: MDA‐MB‐231, 24 h
Source text: as §6, §7

[12] = system: MCF‐7; assay: Mitochondrial membrane potential (JC‐1) apoptosis assay, MCF‐7; type: cell-based, human; conditions: MCF‐7, 50 μM, 24 h, MMP assay
Procedure: (§8) Apoptosis was also investigated by evaluating mitochondrial membrane potential changes (MMP assay). MCF‐7, MDA‐MB‐231, and L‐929 cells were stained with JC‐1 dye according to the manufacturer's protocols (JC‐1 MMP Assay Kit, KA1324, Abnova). The apoptotic to healthy cell ratio was calculated using absorbances collected from two different fluorescence channels (535/595 for healthy cells, 485/535 for apoptotic cells) (Synergy H1, Biotech Instruments Inc., Vermont, USA).

[13] = system: MDA‐MB‐231; assay: Mitochondrial membrane potential (JC‐1) apoptosis assay, MDA‐MB‐231; type: cell-based, human; conditions: MDA‐MB‐231, 50 μM, 24 h, MMP assay
Procedure: as §8

[14] = system: L‐929; assay: Mitochondrial membrane potential (JC‐1) apoptosis assay, L‐929; type: cell-based, mouse; conditions: L‐929, 50 μM, 24 h, MMP assay
Procedure: as §8

[15] = system: COX‐2; assay: Western blot COX‐2 protein expression, MCF‐7; type: cell-based, human; conditions: 24 h
Procedure: (§9) Total protein levels were measured using the Take3 Multi‐Volume Plate (Synergy H1, BioTek Instruments Inc., Vermont, USA). In accordance with the classical protocol, transferred proteins were exposed to the following primary antibodies: Beta‐actin (NB600‐501, Novus Biologicals), Bax (SPM336, NBP2‐32809), Bcl‐2 (100/D5, NBP2‐15200), cleaved PARP (194C1439, NBP2‐27335), and COX‐2 (D‐12:sc‐166475, Santa Cruz). The bands were visualized with chemiluminescent HRP substrates (Western Bright ECL‐Advansta, K‐12045‐050). Using a chemiluminescence imaging system (Celvin S, BioStep), the relative quantification was done based on the level of β‐actin proteins.

[16] = system: COX‐2; assay: Western blot COX‐2 protein expression, MDA‐MB‐231; type: cell-based, human; conditions: 24 h
Procedure: as §9

[17] = system: Bax/Bcl‐2 ratio; assay: Western blot Bax/Bcl‐2 ratio in breast cancer cell lines; type: cell-based, human; conditions: 50 and 75 µM, 24 h
Procedure: as §9

[18] = system: c‐PARP; assay: Western blot cleaved PARP, MDA‐MB‐231; type: cell-based, human; conditions: MDA‐MB‐231, 24 h, all concentrations (50 and 75 µM); not measurable in MCF‐7
Procedure: as §9

[19] = system: MCF‐7, MDA‐MB‐231, and L‐929; assay: MTT cell viability assay, statements over all cell lines; type: cell-based; conditions: 25 µM; MCF‐7, MDA‐MB‐231 and L‐929; not dose‐dependent
Source text: as §2, §3, §4
All statistical evaluations, including t‐tests and IC50 values, were calculated using the GraphPad Prism software tool (v6.0, GraphPad Software Inc., San Diego, USA). […]

[20] = MCF‐7 in comparison to L‐929, 24 h
[21] = MCF‐7 in comparison to L‐929, 48 h
[22] = MDA-MB-231, 24 h, MDA‐MB‐231, 24 h
[23] = MDA-MB-231, 48 h, MDA‐MB‐231, 48 h
[24] = MDA‐MB‐231 in comparison to L‐929, 24 h
[25] = MDA‐MB‐231 in comparison to L‐929, 48 h

O=c1[nH]cc(F)c(=O)[nH]1 [5‐FU]
IC50 ([1]; MCF‐7, 24 h, ref Badawi et al. (2023) [68]): 17 µM
IC50 ([2]; ref Badawi et al. (2023) [68]): 11.7 µM

Cc1ccc(-c2cc(C(F)(F)F)nn2-c2ccc(S(N)(=O)=O)cc2)cc1 [Celecoxib]
IC50 ([1]; MCF‐7, 24 h, monolayer cultures, ref Huang et al. (2017) [64]): 89 µM
IC50 ([1]; MCF‐7, 24 h, monolayer cultures, ref Huang et al. (2017) [64], listed as celecoxib): 40.1 µM
IC50 ([2]; monolayer cultures, ref Huang et al. (2017) [64]): 40.1 µM
IC50 ([2]; monolayer cultures, ref Huang et al. (2017) [64], listed as celecoxib): 89 µM
IC50 [3]: 25 to 100 µM

CS(=O)(=O)c1ccc(-c2cc(Br)sc2-c2ccc(F)cc2)cc1 [DUP‐697]
Reduction of PGE2 release [4]: 46%
Reduction of PGE2 release [5]: 88%

CCc1cccc2c3c([nH]c12)[C@@](CC)(CC(=O)O)OCC3 [Etodolac R‐enantiomer SDX‐101]
IC50 [6]: 490 µM

CCc1cc(Br)cc2c3c([nH]c12)C(CC)(CCO)OCC3 (stereo not shown) [Etodolac analog SDX‐308]
IC50 [6]: 23.8 µM

CC(C)Cc1ccc(C(C)C(=O)O)cc1 (stereo not shown) [Ibuprofen]
IC50 ([1]; MCF‐7, 48 h, ref Daniel Pedro‐Hernández et al. (2020) [67]): 92.1 µM

O=C(O)C(=O)O.[NH-][C@@H]1CCCC[C@H]1[NH-].[Pt+2] [Oxaliplatin]
IC50 ([1]; MCF‐7, 24 h, ref Raymond et al. (1997) [66]): 7.4 µM
IC50 ([2]; ref Raymond et al. (1997) [66]): 17.9 µM

CCc1cccc2c3c([nH]c12)C(CC)(CC(=O)NN1C(=O)CSC1c1c(F)cccc1F)OCC3 (stereo not shown) [SGK 217, 3‐(2‐(1,8‐Diethyl‐1,3,4,9‐tetrahydropyrano[3,4‐b]indole‐1‐yl)acetylhydrazono)‐2‐(2,6‐difluorophenyl)‐4‐thiazolidinone]
IC50 ([7]; MCF‐7, 24 h): 18 ± 3.4 µM
IC50 ([7]; MCF‐7, 48 h): 12.2 ± 2 µM
IC50 ([7]; MCF‐7, 72 h): 26.7 ± 4.8 µM
Selectivity index (SI) [7, 20]: 4.0
Selectivity index (SI) [7, 21]: 2.4
Selectivity index (SI) ([7]; MCF‐7 in comparison to L‐929, 72 h): 1
IC50 [8, 22]: 36 ± 1.6 µM
IC50 [8, 23]: 13.8 ± 1.6 µM
IC50 ([8]; MDA-MB-231, 72 h, MDA‐MB‐231, 72 h): 14.6 ± 1.4 µM
Selectivity index (SI) [8, 24]: 2.0
Selectivity index (SI) [8, 25]: 2.1
Selectivity index (SI) ([8]; MDA‐MB‐231 in comparison to L‐929, 72 h): 1.8
IC50 ([9]; L929, 24 h, L‐929, 24 h): 72 ± 3.2 µM
IC50 ([9]; L929, 48 h, L‐929, 48 h): 29.6 ± 0.94 µM
IC50 ([9]; L929, 72 h, L‐929, 72 h): 26.3 ± 0.112 µM
Apoptotic cells ([10]; 25 µM): 6%
Dead cells ([10]; 25 µM): 7%
Live cells ([10]; 25 µM): 87%
Apoptotic cells ([10]; 50 µM): 16%
Dead cells ([10]; 50 µM): 10%
Live cells ([10]; 50 µM): 74%
Apoptotic cells ([10]; 75 µM): 18%
Dead cells ([10]; 75 µM): 27%
Live cells ([10]; 75 µM): 55%
Apoptotic cells ([11]; 25 µM): 0%
Dead cells ([11]; 25 µM): 7%
Live cells ([11]; 25 µM): 93%
Apoptotic cells ([11]; 50 µM): 23%
Dead cells ([11]; 50 µM): 11%
Live cells ([11]; 50 µM): 66%
Increase in apoptosis compared to the control group [12]: 51%
Increase in apoptosis compared to the control group [13]: 85%
Increase in apoptosis compared to the control group [14]: 3%
Decrease in COX‐2 protein expression compared to the control group ([15]; MCF‐7, 50 µM): 56%
Decrease in COX‐2 protein expression compared to the control group ([15]; MCF‐7, 75 µM): 85%
Decrease in COX‐2 protein expression compared to the control group ([16]; MDA‐MB‐231, 50 µM): 61%
Decrease in COX‐2 protein expression compared to the control group ([16]; MDA‐MB‐231, 75 µM): 84%
Bax/Bcl‐2 ratio change [17]: significantly rise
c‐PARP (89‐kD fragment) protein change [18]: consistent activation; also recorded: significant increase

CCc1cccc2c3c([nH]c12)C(CC)(Cc1n[nH]c(=S)n1Cc1ccccc1)OCC3 (stereo not shown) [SGK 242, 5‐[(1,8‐Diethyl‐1,3,4,9‐tetrahydropyrano[3,4‐b]indole‐1‐yl)methyl]‐4‐benzyl‐2,4‐dihydro‐3H‐1,2,4‐triazole‐3‐thione]
IC50 ([7]; MCF‐7, 24 h): 22 ± 0.1 µM
IC50 ([7]; MCF‐7, 48 h): 12 ± 3.3 µM
Selectivity index (SI) [7, 20]: 1.7
Selectivity index (SI) [7, 21]: 3.6
IC50 [8, 22]: 31 ± 2.5 µM
IC50 [8, 23]: 24 ± 1.2 µM
Selectivity index (SI) [8, 24]: 1.2
Selectivity index (SI) [8, 25]: 1.8
IC50 ([9]; L929, 24 h, L‐929, 24 h): 38 ± 8.05 µM
IC50 ([9]; L929, 48 h, L‐929, 48 h): 44.2 ± 2.45 µM
Toxicity on all cell lines [19]: severe toxicity
